ChEMBL document CHEMBL5661943, “ASAP - In vitro antiviral effect” (2024)
“And” between values parts separate entries of the source, which are not always exact repeats. Identical values can stand only once.

Columns and labels:
dengue virus type 2 [1] = experiment: Functional CPE-based assay to measure dose dependent changes in antiviral-drug inhibitory efficacy against Dengue virus type 2 New Guinea C in Huh7 cells. Cells are treated with antiviral candidates that are serially diluted. EC50 is reported via analysis of MTT/MTS assay as a readout of CPE. The assay has been performed by National Institute of Allergy and Infectious Diseases.; type: organism-based, Homo sapiens; conditions: Huh-7
dengue virus type 2 [2] = experiment: (§1) Functional immunofluorescence assay to measure dose dependent changes in antiviral-drug inhibitory efficacy against Dengue virus type 2 Thailand/16681/84 in Vero E6/TMPRSS2 cells (cotreated with P-gp inhibitor, Elacridar). Cells are treated with antiviral candidates that are serially diluted, following infection, cells are fixed. EC50 is reported via analysis of immunofluorescence staining. The assay has been performed by Icahn School of Medicine at Mount Sinai.; type: organism-based, Chlorocebus sabaeus, VeroE6/TMPRSS2
Zika virus [3] = experiment: EC50 is reported via analysis of immunofluorescence staining. The assay has been performed by Icahn School of Medicine at Mount Sinai.; type: functional, organism-based, Chlorocebus sabaeus, VeroE6/TMPRSS2
Zika virus [4] = experiment: as §1, with “Zika” for “Dengue”, “PRVABC59” for “type 2 Thailand/16681/84”, “cells.” for “cells (cotreated with P-gp inhibitor, Elacridar).”; type: organism-based, Chlorocebus sabaeus
Zika virus [5] = experiment: (§2) Functional CPE-based assay to measure dose dependent changes in antiviral-drug inhibitory efficacy against Zika virus MR766 in Vero E6 miRFP670 cells. Cells are treated with antiviral candidates that are serially diluted. EC50 is reported via analysis of MTS assay as a readout of CPE. The assay has been performed by KU Leuven.; type: organism-based, Chlorocebus sabaeus, Vero C1008; conditions: Zika virus
dengue virus type 2 [6] = experiment: as §1, with “cells.” for “cells (cotreated with P-gp inhibitor, Elacridar).”; type: organism-based, Chlorocebus sabaeus; conditions: for EC50: VeroE6/TMPRSS2
dengue virus type 2 [7] = experiment: Functional assay to measure dose dependent changes in antiviral-drug inhibitory efficacy against Dengue virus type 2 New Guinea C in Vero E6 miRFP670 cells (cotreated with P-gp inhibitor, CP100356). Cells are treated with antiviral candidates that are serially diluted, following infection, cells are fixed. EC50 is reported via analysis of fluorescence intensity using high-content imager. The …; type: organism-based, Chlorocebus sabaeus, Vero C1008; conditions: for EC90: Baseline response 0 %, Maximum response 100 %, P-gp concentration 500 nM, P-gp inhibitor CP100356
Zika virus [8] = experiment: as §2, with “cells (cotreated with P-gp inhibitor, CP100356).” for “cells.”; type: organism-based, Chlorocebus sabaeus, Vero C1008; conditions: Zika virus, Vero C1008

Structure (SMILES): NCc1cccc(NC(=O)[C@@H](NC(=O)OCc2ccccc2)c2ccc(OCc3ccccc3)cc2)c1
- EC50 (dengue virus type 2 [1]): > 18 µM

Structure (SMILES): COc1cc(Cc2c(-c3ccc(F)cc3)noc2C)nc(N2CCNCC2)n1
- EC50 (dengue virus type 2 [1]): > 18 µM

Structure (SMILES): c1ccc2sc(C3CCN(Cc4c[nH]c5ccccc45)CC3)nc2c1
- EC90 (dengue virus type 2 [2]; Baseline response 0 %, EC90 CI (lower) 2.225 uM, EC90 CI (upper) 16.418 uM, Hill slope -4.495, Maximum measured 125.314 %, Maximum response 100 %, Minimum measured 8.4 %, P-gp concentration 2 uM, R squared 0.582, P-gp inhibitor Elacidar): 16.1 µM
- EC90 (dengue virus type 2 [2]; Dengue virus, VeroE6/TMPRSS2): 16.6 µM
- EC50 (dengue virus type 2 [2]; veroe6/tmprss2): 2.19 µM and 9.85 µM
- EC50 (dengue virus type 2 [1]): > 18 µM
- EC90 (Zika virus [3]; Baseline response 0 %, EC90 CI (lower) 0.007 uM, EC90 CI (upper) 47.388 uM, Hill slope -1.134, Maximum measured 126.957 %, Maximum response 50 %, Minimum measured 1.357 %, P-gp concentration 2 uM, R squared 0.32, P-gp inhibitor Elacidar): 28.6 µM
- EC50 (Zika virus [3]; Zika virus, VeroE6/TMPRSS2): 2.33 µM
- EC90 (Zika virus [3]; Zika virus, VeroE6/TMPRSS2, Baseline response 0 %, Hill slope -0.408, Maximum measured 80.807 %, Maximum response 100 %, Minimum measured 15.814 %, P-gp concentration 2 uM, R squared 0.363, P-gp inhibitor Elacidar): > 16.7 µM
- EC50 (Zika virus [3]; veroe6/tmprss2): 4.11 µM

Structure (SMILES): CC[C@@H](Cc1nnn[nH]1)c1ccc(NC(=O)c2cc(Cl)cc(NC(=O)OCc3ccccc3)c2)cc1
- EC50 (Zika virus [4]; VeroE6/TMPRSS2): > 50 µM
- EC90 (Zika virus [4]; VeroE6/TMPRSS2): > 50 µM
- EC50 (Zika virus [5]; Vero C1008): > 50 µM
- EC90 (Zika virus [5]; Vero C1008, Baseline response 0 %, Hill slope 5.649, Maximum measured 5.74 %, Maximum response 100 %, Minimum measured -1.447 %, R squared 0.24): > 50 µM
- EC50 (dengue virus type 2 [2]; Dengue virus, VeroE6/TMPRSS2): 10.4 µM
- EC90 (dengue virus type 2 [2]; Dengue virus, VeroE6/TMPRSS2, Baseline response 0 %, Hill slope -0.442, Maximum measured 140.797 %, Maximum response 100 %, Minimum measured 47.356 %, P-gp concentration 2 uM, R squared 0.351, P-gp inhibitor Elacidar): > 16.7 µM
- EC50 (dengue virus type 2 [6]): > 5.56 µM
- EC90 (dengue virus type 2 [6]; VeroE6/TMPRSS2, Baseline response 0 %, Hill slope -0.186, Maximum measured 93.084 %, Maximum response 100 %, Minimum measured 36.595 %, R squared 0.076): > 5.56 µM
- EC50 (dengue virus type 2 [7]; Dengue virus, Vero C1008): 43.5 µM
- EC90 (dengue virus type 2 [7]; Dengue virus, Vero C1008, Hill slope -24.458, Maximum measured 108.477 %, Minimum measured 3.247 %, R squared 0.952): 47.6 µM
- EC50 (Zika virus [3]; Zika virus, VeroE6/TMPRSS2): 1.93 µM
- EC90 (Zika virus [3]; Zika virus, VeroE6/TMPRSS2): 2.9 µM

Structure (SMILES): NCCc1cccc(NC(=O)[C@H]2[C@H]3CCCCC[C@H]3[C@H]2NC(=O)OCc2ccccc2)c1
- EC50 (Zika virus [4]; VeroE6/TMPRSS2): 16.3 µM
- EC90 (Zika virus [4]; VeroE6/TMPRSS2, Baseline response 0 %, Hill slope -67.816, Maximum measured 128.901 %, Maximum response 100 %, Minimum measured 6.251 %, R squared 0.855): 16.9 µM
- EC50 (Zika virus [5]; Vero C1008): > 50 µM
- EC90 (Zika virus [5]; Vero C1008, Baseline response 0 %, Hill slope 0.101, Maximum measured 6.245 %, Maximum response 100 %, Minimum measured -3.134 %, R squared 0.013): > 50 µM
- EC50 (dengue virus type 2 [2]; Dengue virus, VeroE6/TMPRSS2): 0.852 µM
- EC90 (dengue virus type 2 [2]; Dengue virus, VeroE6/TMPRSS2, Baseline response 0 %, Hill slope -0.607, Maximum measured 105.284 %, Maximum response 100 %, Minimum measured 41.503 %, P-gp concentration 2 uM, R squared 0.471, P-gp inhibitor Elacidar): > 1.85 µM
- EC50 (dengue virus type 2 [6]): > 1.85 µM
- EC90 (dengue virus type 2 [6]; VeroE6/TMPRSS2, Maximum measured 147.779 %, Minimum measured 82.782 %): > 1.85 µM
- EC50 (dengue virus type 2 [7]; Dengue virus, Vero C1008): 8.83 µM
- EC90 (dengue virus type 2 [7]; Dengue virus, Vero C1008, EC90 CI (lower) 4.071 uM, EC90 CI (upper) 8.838 uM, Hill slope -5.677, Maximum measured 107.479 %, Minimum measured 11.429 %, R squared 0.889): 13 µM
- EC50 (Zika virus [3]; Zika virus, VeroE6/TMPRSS2): 1.51 µM
- EC90 (Zika virus [3]; Zika virus, VeroE6/TMPRSS2): 27.9 µM

Structure (SMILES): Cc1ccc(NC(=O)c2cc(Cl)cc(NC(=O)OCc3ccccc3)c2)cc1CN
- EC50 (Zika virus [4]; VeroE6/TMPRSS2): > 50 µM
- EC90 (Zika virus [4]; VeroE6/TMPRSS2, Maximum measured 627.464 %, Minimum measured 75.729 %): > 50 µM
- EC50 (Zika virus [5]; Vero C1008): > 3.12 µM
- EC90 (Zika virus [5]; Vero C1008, Baseline response 0 %, Hill slope 16.084, Maximum measured 41.192 %, Maximum response 100 %, Minimum measured -3.993 %, R squared 0.961): > 3.12 µM
- EC50 (Zika virus [8]): 2.61 µM
- EC90 (Zika virus [8]; Baseline response 0 %, Hill slope 6.556, Maximum measured 76.39 %, Maximum response 100 %, Minimum measured 1.967 %, P-gp concentration 500 nM, R squared 0.915, P-gp inhibitor CP100356): > 3.12 µM
- EC50 (dengue virus type 2 [2]; Dengue virus, VeroE6/TMPRSS2): 0.532 µM
- EC90 (dengue virus type 2 [2]; Dengue virus, VeroE6/TMPRSS2, Baseline response 0 %, Hill slope -0.692, Maximum measured 108.544 %, Maximum response 100 %, Minimum measured 11.231 %, P-gp concentration 2 uM, R squared 0.808, P-gp inhibitor Elacidar): > 5.56 µM
- EC50 (dengue virus type 2 [6]): < 0.023 µM
- EC90 (dengue virus type 2 [6]; VeroE6/TMPRSS2, Baseline response 0 %, Hill slope -0.25, Maximum measured 56.738 %, Maximum response 100 %, Minimum measured 21.854 %, R squared 0.324): > 5.56 µM
- EC90 (dengue virus type 2 [7]; EC90 CI (lower) 0 uM, EC90 CI (upper) Could not be calculated, confidence interval too large, Hill slope -15.095, Maximum measured 108.434 %, Minimum measured 1.527 %, R squared 0.917): 3.71 µM
- EC90 (dengue virus type 2 [7]; Hill slope -19.938, Maximum measured 107.168 %, Minimum measured 6.341 %, R squared 0.876): 1.73 µM
- EC50 (dengue virus type 2 [7]; vero c1008): 3.21 µM and 1.55 µM
- EC90 (Zika virus [3]; Zika virus, VeroE6/TMPRSS2, Maximum measured 108.754 %, Minimum measured 39.323 %, P-gp concentration 2 uM, P-gp inhibitor Elacidar): > 5.56 µM
- EC90 (Zika virus [3]; Zika virus, VeroE6/TMPRSS2, Baseline response 0 %, Hill slope -0.897, Maximum measured 104.466 %, Maximum response 100 %, Minimum measured 2.423 %, P-gp concentration 2 uM, R squared 0.573, P-gp inhibitor Elacidar): > 5.56 µM
- EC50 (Zika virus [3]; veroe6/tmprss2): 0.903 µM and > 5.56 µM

Structure (SMILES): Cc1[nH]c2ccccc2c1CN1CCC(c2c[nH]c3ncccc23)CC1
- EC50 (Zika virus [4]; VeroE6/TMPRSS2): 13.1 µM
- EC90 (Zika virus [4]; VeroE6/TMPRSS2, Baseline response 0 %, Hill slope -0.459, Maximum measured 94.623 %, Maximum response 100 %, Minimum measured 4.56 %, R squared 0.472): > 50 µM
- EC50 (Zika virus [5]; Vero C1008): 6.51 µM
- EC90 (Zika virus [5]; Vero C1008): 7.41 µM
- EC90 (dengue virus type 2 [2]; Baseline response 0 %, Hill slope -0.694, Maximum measured 115.257 %, Maximum response 100 %, Minimum measured 6.241 %, P-gp concentration 2 uM, R squared 0.775, P-gp inhibitor Elacidar): > 16.7 µM
- EC90 (dengue virus type 2 [2]; Dengue virus, VeroE6/TMPRSS2, Baseline response 0 %, Hill slope -0.066, Maximum measured 94.332 %, Maximum response 100 %, Minimum measured 44.366 %, P-gp concentration 2 uM, R squared 0.022, P-gp inhibitor Elacidar): > 10 µM
- EC50 (dengue virus type 2 [2]; veroe6/tmprss2): > 10 µM and 3.01 µM
- EC50 (dengue virus type 2 [6]): > 16.7 µM
- EC90 (dengue virus type 2 [6]; VeroE6/TMPRSS2, Baseline response 0 %, Hill slope -0.265, Maximum measured 113.218 %, Maximum response 100 %, Minimum measured 41.507 %, R squared 0.203): > 16.7 µM
- EC50 (dengue virus type 2 [7]; Dengue virus, Vero C1008): 7.05 µM
- EC90 (dengue virus type 2 [7]; Dengue virus, Vero C1008, EC90 CI (lower) 3.837 uM, EC90 CI (upper) 5.899 uM, Hill slope -5.588, Maximum measured 107.944 %, Minimum measured 3.436 %, R squared 0.982): 10.5 µM
- EC90 (Zika virus [3]; Baseline response 0 %, EC90 CI (lower) 0.367 uM, EC90 CI (upper) 8.175 uM, Hill slope -1.726, Maximum measured 163.583 %, Maximum response 100 %, Minimum measured 5.054 %, P-gp concentration 2 uM, R squared 0.694, P-gp inhibitor Elacidar): 22.1 µM
- EC90 (Zika virus [3]; Baseline response 0 %, Hill slope -0.27, Maximum measured 107.973 %, Maximum response 100 %, Minimum measured 29.852 %, P-gp concentration 2 uM, R squared 0.23, P-gp inhibitor Elacidar): > 10 µM
- EC50 (Zika virus [3]; Zika virus, VeroE6/TMPRSS2): > 10 µM
- EC50 (Zika virus [3]; veroe6/tmprss2): 6.19 µM
